According to PubChem BioAssay AID2060488 (Molecular Pharmacology Branch, DTP, NCI, 2025):
pIC50: −log10 of the molar value.

Tested on: 966289-007-R4-J1-PDC complex spheroid viability
Test: Anticancer human tumor 966289-007-R4-J1-PDC patient-derived pancreatic adenocarcinoma cell line growth inhibition [GQUAD]
Details: for pIC50: curve of first compound; for viability, T/C: stronger effect = lower value
In short: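 Viability of tumor cells grown as complex spheroids with endothelial and stromal cells, exposed to drug combinations. Top concentration at or near clinical Cmax (else 10 microM), diluted in half-log increments.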

[1] = second compound 0.0316 µM, first compound 0.0316 µM
[2] = second compound 0.0316 µM, first compound 0.1 µM
[3] = second compound 0.0316 µM, first compound 0.316 µM
[4] = second compound 0.0316 µM, first compound 1 µM
[5] = second compound 0.0316 µM, first compound 3.16 µM
[6] = second compound 0.0316 µM, first compound 10 µM
[7] = second compound 0.1 µM, first compound 0.0316 µM
[8] = second compound 0.1 µM, first compound 0.1 µM
[9] = second compound 0.1 µM, first compound 0.316 µM
[10] = second compound 0.1 µM, first compound 1 µM
[11] = second compound 0.1 µM, first compound 3.16 µM
[12] = second compound 0.1 µM, first compound 10 µM
[13] = second compound 0.316 µM, first compound 0.0316 µM
[14] = second compound 0.316 µM, first compound 0.1 µM
[15] = second compound 0.316 µM, first compound 0.316 µM
[16] = second compound 0.316 µM, first compound 1 µM
[17] = second compound 0.316 µM, first compound 3.16 µM
[18] = second compound 0.316 µM, first compound 10 µM
[19] = second compound 1 µM, first compound 0.0316 µM
[20] = second compound 1 µM, first compound 0.1 µM
[21] = second compound 1 µM, first compound 0.316 µM
[22] = second compound 1 µM, first compound 1 µM
[23] = second compound 1 µM, first compound 3.16 µM
[24] = second compound 1 µM, first compound 10 µM
[25] = second compound 3.16 µM, first compound 0.0316 µM
[26] = second compound 3.16 µM, first compound 0.1 µM
[27] = second compound 3.16 µM, first compound 0.316 µM
[28] = second compound 3.16 µM, first compound 1 µM
[29] = second compound 3.16 µM, first compound 3.16 µM
[30] = second compound 3.16 µM, first compound 10 µM
[31] = second compound 10 µM, first compound 0.0316 µM
[32] = second compound 10 µM, first compound 0.1 µM
[33] = second compound 10 µM, first compound 0.316 µM
[34] = second compound 10 µM, first compound 1 µM
[35] = second compound 10 µM, first compound 3.16 µM
[36] = second compound 10 µM, first compound 10 µM
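Also: spheroids exposed to the agents for seven days before readout.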
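For viability, T/C in this document: percent viability relative to DMSO vehicle control wells taken as 100%.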

SMILES: C=CC(=O)N1CCN(c2nc(=O)n(-c3c(C)ccnc3C(C)C)c3nc(-c4c(O)cccc4F)c(F)cc23)C(C)C1 (stereo unspecified) + Cc1[nH]c2ccc(F)cc2c1-c1nc2c3cccnc3c3ncccc3c2[nH]1
- pIC50 (second compound 0.0316 µM): < 5.00
- pIC50 (second compound 0.1 µM): < 5.00
- pIC50 (second compound 0.316 µM): < 5.00
- pIC50 (second compound 1 µM): < 5.00
- pIC50 (second compound 3.16 µM): < 5.00
- pIC50 (second compound 10 µM): < 5.00
- viability, T/C [1]: 99.9%
- viability, T/C [2]: 94.1%
- viability, T/C [3]: 103%
- viability, T/C [4]: 93.8%
- viability, T/C [5]: 105%
- viability, T/C [6]: 107%
- viability, T/C [7]: 105%
- viability, T/C [8]: 96.6%
- viability, T/C [9]: 103%
- viability, T/C [10]: 95.2%
- viability, T/C [11]: 102%
- viability, T/C [12]: 114%
- viability, T/C [13]: 97.4%
- viability, T/C [14]: 99.7%
- viability, T/C [15]: 90.3%
- viability, T/C [16]: 106%
- viability, T/C [17]: 104%
- viability, T/C [18]: 111%
- viability, T/C [19]: 95.4%
- viability, T/C [20]: 103%
- viability, T/C [21]: 105%
- viability, T/C [22]: 98.4%
- viability, T/C [23]: 86.1%
- viability, T/C [24]: 109%
- viability, T/C [25]: 101%
- viability, T/C [26]: 101%
- viability, T/C [27]: 111%
- viability, T/C [28]: 100%
- viability, T/C [29]: 108%
- viability, T/C [30]: 101%
- viability, T/C [31]: 99.2%
- viability, T/C [32]: 98%
- viability, T/C [33]: 104%
- viability, T/C [34]: 101%
- viability, T/C [35]: 94.4%
- viability, T/C [36]: 76.8%

SMILES: C#Cc1c(F)ccc2cc(O)cc(-c3ncc4c(N5CC6CCC(C5)N6)nc(OCC56CCCN5CC(F)C6)nc4c3F)c12 (stereo unspecified) + Cc1cnc(CNC(=O)c2c(=O)c3ccc(N4CCCN(C)CC4)nc3n3c2sc2ccccc23)cn1
- pIC50 (second compound 0.0316 µM): < 5.00
- pIC50 (second compound 0.1 µM): > 7.50
- pIC50 (second compound 0.316 µM): > 7.50
- pIC50 (second compound 1 µM): > 7.50
- pIC50 (second compound 3.16 µM): > 7.50
- pIC50 (second compound 10 µM): > 7.50
- viability, T/C [1]: 114%
- viability, T/C [2]: 114%
- viability, T/C [3]: 111%
- viability, T/C [4]: 116%
- viability, T/C [5]: 122%
- viability, T/C [6]: 114%
- viability, T/C [7]: 38.4%
- viability, T/C [8]: 31.4%
- viability, T/C [9]: 34.2%
- viability, T/C [10]: 31.9%
- viability, T/C [11]: 40.5%
- viability, T/C [12]: 33.9%
- viability, T/C [13]: 10.9%
- viability, T/C [14]: 11.8%
- viability, T/C [15]: 13.7%
- viability, T/C [16]: 12.7%
- viability, T/C [17]: 11%
- viability, T/C [18]: 7.05%
- viability, T/C [19]: 6%
- viability, T/C [20]: 4.8%
- viability, T/C [21]: 5.85%
- viability, T/C [22]: 6.1%
- viability, T/C [23]: 6.94%
- viability, T/C [24]: 2.87%
- viability, T/C [25]: 4.4%
- viability, T/C [26]: 5.02%
- viability, T/C [27]: 5.21%
- viability, T/C [28]: 4.53%
- viability, T/C [29]: 4.58%
- viability, T/C [30]: 0.22%
- viability, T/C [31]: 0.1%
- viability, T/C [32]: 0.14%
- viability, T/C [33]: 0.14%
- viability, T/C [34]: 0.28%
- viability, T/C [35]: 0.16%
- viability, T/C [36]: 0.11%

SMILES: O=C(NO)c1cnc(N2CCN(S(=O)(=O)c3ccc4ccccc4c3)CC2)nc1 + CN(C)c1ccc(Nc2c3ccc(NC(=O)CCN4CCCC4)cc3nc3cc(NC(=O)CCN4CCCC4)ccc23)cc1
- pIC50 (second compound 0.0316 µM): 6.44
- pIC50 (second compound 0.1 µM): 6.37
- pIC50 (second compound 0.316 µM): 6.46
- pIC50 (second compound 1 µM): 6.58
- pIC50 (second compound 3.16 µM): 6.55
- pIC50 (second compound 10 µM): 6.72
- viability, T/C [1]: 112%
- viability, T/C [2]: 107%
- viability, T/C [3]: 55.2%
- viability, T/C [4]: 9.1%
- viability, T/C [5]: 1.51%
- viability, T/C [6]: 0.76%
- viability, T/C [7]: 105%
- viability, T/C [8]: 106%
- viability, T/C [9]: 64.2%
- viability, T/C [10]: 10.4%
- viability, T/C [11]: 1.4%
- viability, T/C [12]: 0.24%
- viability, T/C [13]: 106%
- viability, T/C [14]: 108%
- viability, T/C [15]: 52.9%
- viability, T/C [16]: 7.46%
- viability, T/C [17]: 1.19%
- viability, T/C [18]: 0.23%
- viability, T/C [19]: 100%
- viability, T/C [20]: 108%
- viability, T/C [21]: 39.9%
- viability, T/C [22]: 8.91%
- viability, T/C [23]: 1.33%
- viability, T/C [24]: 0.27%
- viability, T/C [25]: 97.1%
- viability, T/C [26]: 107%
- viability, T/C [27]: 43.6%
- viability, T/C [28]: 5.36%
- viability, T/C [29]: 0.77%
- viability, T/C [30]: 0.21%
- viability, T/C [31]: 101%
- viability, T/C [32]: 106%
- viability, T/C [33]: 7.93%
- viability, T/C [34]: 1.01%
- viability, T/C [35]: 0.44%
- viability, T/C [36]: 0.14%
